Tested on: patients with MUM
Assay: Adverse events regardless of study drug relationship
Type: in vivo, human
Procedure: Routine safety assessments, including laboratory assessments, physical examinations, vital signs and electrocardiograms (ECGs), were conducted at regular intervals throughout the study and more frequently as needed following patient assessment by the treating physician. Adverse events (AEs) were assessed continuously according to the National Cancer Institute Common Terminology Criteria for Adverse Events (NCI-CTCAE) v4.03.

CC1(N)CCN(c2cccnc2NC(=O)c2nc(-c3ncccc3C(F)(F)F)cnc2N)CC1 [LXS196]
ALT increased, all grades (300 mg BID (RDE)): 5 (27.8) n (%)
ALT increased, grade ≥3 (300 mg BID (RDE)): 1 (5.6) n (%)
AST increased, all grades (300 mg BID (RDE)): 4 (22.2) n (%)
AST increased, grade ≥3 (300 mg BID (RDE)): 2 (11.1) n (%)
Abdominal pain upper, all grades (300 mg BID (RDE)): 3 (16.7) n (%)
Abdominal pain upper, grade ≥3 (300 mg BID (RDE)): 0 n (%)
Asthenia, all grades (300 mg BID (RDE)): 4 (22.2) n (%)
Asthenia, grade ≥3 (300 mg BID (RDE)): 0 n (%)
Blood creatinine increased, all grades (300 mg BID (RDE)): 2 (11.1) n (%)
Blood creatinine increased, grade ≥3 (300 mg BID (RDE)): 0 n (%)
Constipation, all grades (300 mg BID (RDE)): 4 (22.2) n (%)
Constipation, grade ≥3 (300 mg BID (RDE)): 0 n (%)
Decreased appetite, all grades (300 mg BID (RDE)): 2 (11.1) n (%)
Decreased appetite, grade ≥3 (300 mg BID (RDE)): 0 n (%)
Dermatitis acneiform, all grades (300 mg BID (RDE)): 3 (16.7) n (%)
Dermatitis acneiform, grade ≥3 (300 mg BID (RDE)): 0 n (%)
Diarrhoea, all grades (300 mg BID (RDE)): 11 (61.1) n (%)
Diarrhoea, grade ≥3 (300 mg BID (RDE)): 1 (5.6) n (%)
Dry skin, all grades (300 mg BID (RDE)): 4 (22.2) n (%)
Dry skin, grade ≥3 (300 mg BID (RDE)): 0 n (%)
Fatigue, all grades (300 mg BID (RDE)): 6 (33.3) n (%)
Fatigue, grade ≥3 (300 mg BID (RDE)): 0 n (%)
Hypotension, all grades (300 mg BID (RDE)): 3 (16.7) n (%)
Hypotension, grade ≥3 (300 mg BID (RDE)): 0 n (%)
Nasopharyngitis, all grades (300 mg BID (RDE)): 2 (11.1) n (%)
Nasopharyngitis, grade ≥3 (300 mg BID (RDE)): 0 n (%)
Nausea, all grades (300 mg BID (RDE)): 15 (83.3) n (%)
Nausea, grade ≥3 (300 mg BID (RDE)): 0 n (%)
Neutropenia, all grades (300 mg BID (RDE)): 0 n (%)
Neutropenia, grade ≥3 (300 mg BID (RDE)): 0 n (%)
Oedema peripheral, all grades (300 mg BID (RDE)): 5 (27.8) n (%)
Oedema peripheral, grade ≥3 (300 mg BID (RDE)): 1 (5.6) n (%)
Patients with ≥1 AE, all grades (300 mg BID (RDE)): 18 (100) n (%)
Patients with ≥1 AE, grade ≥3 (300 mg BID (RDE)): 8 (44.4) n (%)
Rash, all grades (300 mg BID (RDE)): 5 (27.8) n (%)
Rash, grade ≥3 (300 mg BID (RDE)): 0 n (%)
Vomiting, all grades (300 mg BID (RDE)): 8 (44.4) n (%)
Vomiting, grade ≥3 (300 mg BID (RDE)): 0 n (%)
ALT increased, all grades (300 mg QD): 4 (26.7) n (%)
ALT increased, grade ≥3 (300 mg QD): 1 (6.7) n (%)
AST increased, all grades (300 mg QD): 1 (6.7) n (%)
AST increased, grade ≥3 (300 mg QD): 1 (6.7) n (%)
Abdominal pain upper, all grades (300 mg QD): 2 (13.3) n (%)
Abdominal pain upper, grade ≥3 (300 mg QD): 0 n (%)
Asthenia, all grades (300 mg QD): 3 (20.0) n (%)
Asthenia, grade ≥3 (300 mg QD): 0 n (%)
Blood creatinine increased, all grades (300 mg QD): 2 (13.3) n (%)
Blood creatinine increased, grade ≥3 (300 mg QD): 0 n (%)
Constipation, all grades (300 mg QD): 4 (26.7) n (%)
Constipation, grade ≥3 (300 mg QD): 0 n (%)
Decreased appetite, all grades (300 mg QD): 0 n (%)
Decreased appetite, grade ≥3 (300 mg QD): 0 n (%)
Dermatitis acneiform, all grades (300 mg QD): 1 (6.7) n (%)
Dermatitis acneiform, grade ≥3 (300 mg QD): 0 n (%)
Diarrhoea, all grades (300 mg QD): 6 (40.0) n (%)
Diarrhoea, grade ≥3 (300 mg QD): 0 n (%)
Dry skin, all grades (300 mg QD): 1 (6.7) n (%)
Dry skin, grade ≥3 (300 mg QD): 0 n (%)
Fatigue, all grades (300 mg QD): 8 (53.3) n (%)
Fatigue, grade ≥3 (300 mg QD): 0 n (%)
Hypotension, all grades (300 mg QD): 1 (6.7) n (%)
Hypotension, grade ≥3 (300 mg QD): 0 n (%)
Nasopharyngitis, all grades (300 mg QD): 3 (20.0) n (%)
Nasopharyngitis, grade ≥3 (300 mg QD): 0 n (%)
Nausea, all grades (300 mg QD): 10 (66.7) n (%)
Nausea, grade ≥3 (300 mg QD): 0 n (%)
Neutropenia, all grades (300 mg QD): 3 (20.0) n (%)
Neutropenia, grade ≥3 (300 mg QD): 1 (6.7) n (%)
Oedema peripheral, all grades (300 mg QD): 2 (13.3) n (%)
Oedema peripheral, grade ≥3 (300 mg QD): 0 n (%)
Patients with ≥1 AE, all grades (300 mg QD): 14 (93.3) n (%)
Patients with ≥1 AE, grade ≥3 (300 mg QD): 4 (26.7) n (%)
Rash, all grades (300 mg QD): 4 (26.7) n (%)
Rash, grade ≥3 (300 mg QD): 0 n (%)
Vomiting, all grades (300 mg QD): 6 (40.0) n (%)
Vomiting, grade ≥3 (300 mg QD): 0 n (%)
ALT increased, all grades (400 mg BID): 3 (50.0) n (%)
ALT increased, grade ≥3 (400 mg BID): 1 (16.7) n (%)
AST increased, all grades (400 mg BID): 3 (50.0) n (%)
AST increased, grade ≥3 (400 mg BID): 1 (16.7) n (%)
Abdominal pain upper, all grades (400 mg BID): 0 n (%)
Abdominal pain upper, grade ≥3 (400 mg BID): 0 n (%)
Asthenia, all grades (400 mg BID): 2 (33.3) n (%)
Asthenia, grade ≥3 (400 mg BID): 0 n (%)
Blood creatinine increased, all grades (400 mg BID): 0 n (%)
Blood creatinine increased, grade ≥3 (400 mg BID): 0 n (%)
Constipation, all grades (400 mg BID): 2 (33.3) n (%)
Constipation, grade ≥3 (400 mg BID): 0 n (%)
Decreased appetite, all grades (400 mg BID): 2 (33.3) n (%)
Decreased appetite, grade ≥3 (400 mg BID): 0 n (%)
Dermatitis acneiform, all grades (400 mg BID): 1 (16.7) n (%)
Dermatitis acneiform, grade ≥3 (400 mg BID): 0 n (%)
Diarrhoea, all grades (400 mg BID): 3 (50.0) n (%)
Diarrhoea, grade ≥3 (400 mg BID): 0 n (%)
Dry skin, all grades (400 mg BID): 1 (16.7) n (%)
Dry skin, grade ≥3 (400 mg BID): 0 n (%)
Fatigue, all grades (400 mg BID): 1 (16.7) n (%)
Fatigue, grade ≥3 (400 mg BID): 0 n (%)
Hypotension, all grades (400 mg BID): 4 (66.7) n (%)
Hypotension, grade ≥3 (400 mg BID): 1 (16.7) n (%)
Nasopharyngitis, all grades (400 mg BID): 0 n (%)
Nasopharyngitis, grade ≥3 (400 mg BID): 0 n (%)
Nausea, all grades (400 mg BID): 3 (50.0) n (%)
Nausea, grade ≥3 (400 mg BID): 0 n (%)
Neutropenia, all grades (400 mg BID): 1 (16.7) n (%)
Neutropenia, grade ≥3 (400 mg BID): 0 n (%)
Oedema peripheral, all grades (400 mg BID): 1 (16.7) n (%)
Oedema peripheral, grade ≥3 (400 mg BID): 0 n (%)
Patients with ≥1 AE, all grades (400 mg BID): 6 (100) n (%)
Patients with ≥1 AE, grade ≥3 (400 mg BID): 4 (66.7) n (%)
Rash, all grades (400 mg BID): 1 (16.7) n (%)
Rash, grade ≥3 (400 mg BID): 0 n (%)
Vomiting, all grades (400 mg BID): 3 (50.0) n (%)
Vomiting, grade ≥3 (400 mg BID): 0 n (%)

Source: article PMC10006169, “A phase I trial of LXS196, a protein kinase C (PKC) inhibitor, for metastatic uveal melanoma” (British Journal of Cancer, 2023)
